Test results: patent US9512178B2, “Neurogenic brain-derived neurotrophic factor peptides” (Research Foundation for Mental Hygiene, Inc., priority 2012, dated 2016)

Test system: mouse E18 primary hippocampal neurons
Test: Toxicity of the peptides: phase contrast morphology and LDH assay, 5 days treatment
Format: cell-based
Excerpt: To screen these peptides, primary neuronal cell cultures were used from embryonic day 18 (E18) C57BL/6 mouse hippocampus. At the fourth day in vitro (DIV), the culture medium was exchanged with the medium containing the peptides. The primary neuronal cultures were established as taught in the art (see, e.g., Cardenas-Aguayo Mdel, Santa-Olalla et al. 2003, hereby incorporate by reference). Briefly, C57BL/6 time pregnant E18 female mice from Charles River Labs were anesthetized and killed by cervical dislocation following our Institutional Animal Care and Use Committee (IACUC) regulations and approved protocol. Embryos were removed and placed in cold Hibernate A (available from Brain bits, Springfield, Ill., USA), and all of the following steps were performed in ice-cold Hibernate A, under a stereoscopic (dissection) microscope placed in a laminar flow hood. Fetal brains were removed carefully and fore brain were separated. Then, the hippocampus, including the cortex surrounding the area of the hippocampus, was dissected and cut into small pieces using microsurgical scissors. The cut tissue was transferred with number 5 forceps to 15 ml tubes containing 0.1% trypsin in Versene (Invitrogen Life Technologies, Grand Island, N.Y., USA) and incubated for 15 min at 37° C. followed by inactivation with 10% fetal bovine serum (FBS) in Neurobasal complete medium (Neurobasal Medium supplemented with 2×B-27, 0.30% glutamine, and penicillin/streptomycin 0.1 mg/ml and 0.1 U/ml respectively). All medium components were purchased from Invitrogen, Grand Island, N.Y., USA. […]
To study any toxic effect of the peptides, mouse E18 primary hippocampal neurons were treated with the five BDNF peptides individually for up to 5 days at different doses [5 nM, 25 nM, 50 nM (data not shown), 100 nM (0.1 μM), 1000 nM (1 μM), and 10,000 nM (10 μM)]. […] Accordingly, there was no significant change in the viability of cells treated with any of the peptides as evaluated by the lactate dehydrogenase (LDH) assay (see FIG. 2B). […]

Ac-S-KKR-CONH2 [Peptide B-3]
cell death (LDH assay) vs vehicle treated cells (0.1 μM): significant reduction in cell death | cell death (LDH assay) vs vehicle treated cells (1 μM): significant reduction in cell death
